row,Structure (SMILES),melting point [°C]
1,Nc1nc2c(sc(=O)n2C/C=C\CCl)c(=O)[nH]1,200 to 202
2,C[C@H]1CCCC(C)(C)[C@@H]1[C@H](O)c1ccc(C#N)c(C(F)(F)F)c1,118 to 119
3,CCC(C)NC1=NS(=O)(=O)c2cc([N+](=O)[O-])ccc2N1 (configuration not stated),287 to 288
4,CCCCCCCCCCCCSC(=O)CS(=O)(=O)Nc1c(OC)cc(OC)cc1OC,90 to 93
5,CCn1cc(C(=O)O)c(=O)c2cc(F)c(N3CCC3CN)nc21 (configuration not stated),198 to 200
6,COc1cccc(Oc2c(NS(=O)(=O)c3ccc(C(C)(C)C)cc3)ncnc2OCCOc2ncc(Br)cn2)c1,168
7,CCCNc1nc(C)c(CCCl)c(=O)n1C,150
8,OCCCN1CCN(c2ccccc2OCC(F)(F)F)CC1,94 to 96
9,O=c1[nH]c2cc(Cl)cc(OCCNCc3ccccc3)c2[nH]1,192 to 193
10,CCCCCCCCCCCc1ncc(C(=O)O)s1,93
11,CCCN1CCC(=O)C2=C1CSc1ccc(OC)cc12,108 to 110
12,Cn1c2c(c3cccc(C#N)c31)C(=O)NCC2,230 to 231
13,COc1cnc(OC)n2c(N)nnc12,232 to 235
14,COc1ccc2c(c1)c(C(=O)C(=O)NC1=CC(=O)OC1)cn2Cc1ccc(Cl)cc1,238 to 240
15,FC(F)(F)c1ccc(/C=C/c2nc(COc3ccc(CCCCn4ccnn4)cc3)co2)cc1,160 to 161
16,CSCC(C)(C)NC(=O)c1ccccc1Cl,83 to 86
17,CN1C(=O)C(C(=O)Nc2ccc(Oc3nnc(C(C)(C)C)o3)cc2)C(=O)N(C)C1=O,200 to 203
18,CCN1C(=O)C(C)(C)C(=O)N(C)c2cc(CN(CCn3ccc4oc(C)cc4c3=O)Cc3cncn3C)ccc21,106 to 108
19,c1cc2c3c(c[nH]c3c1)CC1NCCCC21 (configuration not stated),170 to 173
20,COc1cc(C)nc(-c2ccc(C)cc2)n1,66 to 67
21,O=c1c(OCCO)c(-c2ccc(OCc3ccccc3)c(OCc3ccccc3)c2)oc2cc(OCc3ccccc3)ccc12,137
22,CCN(CC)C(=O)c1cc(C(C)(C)C)c(O)c(C(C)(C)C)c1,136 to 138

row,Structure (SMILES),melting point [°C]
1,Cc1cc(N)cc2c1NC(=O)CC2C (configuration not stated),207 to 210
2,CC(=O)c1ccc(C(=O)O)o1,189 to 195
3,CCCCn1ccc(-c2ccc(Oc3cc(C)nc(C)c3)c(F)c2)c(C#N)c1=O,205
4,CC1(C)C(C=C(F)C(=O)OCC(F)(F)F)C1C(=O)OC(C#N)c1ccc(F)c(Oc2ccccc2)c1 (configuration not stated),85
5,CC(=O)OCC(C)C1CCC2C3CC=C4CC(OC(C)=O)CCC4(C)C3CCC12C (configuration not stated),125 to 127
6,NCC1Cc2cc(-c3cccc(C(F)(F)F)c3)cc(F)c2O1 (configuration not stated),> 250
7,Cc1c(N(C)C)c(F)cc2c(=O)[nH]c(=O)n(C3CC3)c12,238 to 239
8,O=C1NC(=O)C2=C1c1c([nH]c3ccccc13)Cc1[nH]c3ccccc3c12,> 350
9,CCOC(=O)C(=CN(C)C)C(=O)c1cc2cc(F)c(Cl)cc2nc1Cl,122
10,CC1(C)CCOC1(O)Cn1cncn1 (configuration not stated),93 to 95
11,Nc1ccc2oc3c(OC(F)F)ccc(C(=O)Nc4c(Cl)cncc4Cl)c3c2c1,87 to 89
12,Nc1cc(-n2cc(C(=O)O)c(=O)c3cc(F)c(F)c(Cl)c32)c(Cl)cc1F,237 to 242
13,N#Cc1nn(-c2c(Cl)cc(C(F)(F)F)cc2Cl)c(N)c1C(=O)C(F)(F)F,226
14,COc1ccc(Cc2cc3cc(C#N)ccc3o2)cc1,78 to 80
15,CCOC(=O)C(=O)Nc1ccccc1C(=O)Nc1nnn[nH]1,231 to 232
16,CCOc1cc(CCC2OC(=O)NC2=O)ccc1O (configuration not stated),154 to 155
17,CCCC(COS(C)(=O)=O)(OC(C)C)c1ccc(Cl)cc1Cl (configuration not stated),58 to 61
18,CCOC(=O)c1cn(CC)c2oc(CN3CCOCC3)cc2c1=O,229 to 231
19,CCOC(=O)C(=CNc1ccnn1Cc1ccco1)C(=O)OCC,84 to 86
20,COC(=O)c1cn2c(=O)c(C)c(C)nc2s1,158 to 159
21,CC1(OC(=O)c2ccco2)C=CC(COC(=O)c2ccco2)=CN1 (configuration not stated),118 to 119

# Results, then the compound that gave them:
row,melting point [°C],Structure (SMILES)
1,205 to 206,C[Si](C)(C)C#Cc1cccc2c1C1(c3ccccc3-c3ccccc31)c1ccccc1-2
2,73 to 75,CN(CCC=C1c2ccccc2COc2ccccc21)CCCCCC(O)c1ccc(C(C)(C)C)cc1 (configuration not stated)
3,195 to 199,N#Cc1cc(N)n(-c2c(Cl)cc(-c3ccc(C(F)(F)F)cc3)cc2Cl)n1
4,110 to 111,COc1cc(OC)c(OC)cc1CN1CCc2cc(OCc3ccccc3)c(OC)cc2C1
5,141 to 143,Brc1ccn(-c2ccc(-c3ccccc3)cc2)c1
6,132 to 135,CC(C)S(=O)(=O)Nc1ccc([C@@H](C)C(=O)N[C@@H](C)C(N)=O)cc1
7,196 to 200,CC=Cc1cc(-c2ccc(F)cc2)cc(C(=O)O)c1O
8,126,C=CC(CC(O)C(CC1CCCCC1)NC(=O)C(Cc1c[nH]cn1)NC(=O)C(Cc1ccccc1)N(C)C(=O)CC(C)(C)C)C(C)C (configuration not stated)
9,100 to 104,CCC(C)(C)c1cc(C(=O)c2ccccc2)c(O)cc1O
10,301,O=C(Nc1ccc(C(=O)Nc2nnc(-c3cc(Cl)cc(Cl)c3O)s2)cc1)c1ccccc1
11,192 to 194,CCCCOc1ccc(C(=O)N[C@@H]2COc3cccc(N4CCN(C)CC4)c3C2)cc1
12,144 to 146,Cc1cc(-c2cc3cc(OCCNC[C@H](O)COc4ccccc4)ccc3o2)no1
13,188,O=C1c2cc(OCc3ccc4cc(F)ccc4n3)ccc2OCC1Oc1cccnc1 (configuration not stated)
14,120 to 124,CCOC(=O)c1c(C)nn2c(-c3ccc(Cl)cc3Cl)c(C)ccc12
15,232 to 234,COc1ccc2c(c1)Sc1ccccc1C(=O)N2
16,66 to 68,NC(=O)COCCN1CCN2c3ccccc3Cc3ccccc3C2C1 (configuration not stated)
17,150 to 151,CCOC(=O)/C=C/c1ccc2oc(Cc3nc(-c4ccccc4)oc3C)cc2c1
18,190 to 191,O=C(O)Cc1ccc(NC(=O)C(COc2ccccc2Cl)NS(=O)(=O)c2ccc(Cl)cc2)cc1 (racemic)
19,112 to 114,Cc1cccc2sc(-n3nc(CCCO)cc3-c3ccc(Cl)cc3)nc12
20,164 to 166,C[C@@H]1CN(Cc2ccc(COc3cccc4c3CN(C3CCC(=O)NC3=O)C4=O)cc2)C[C@H](C)O1 (some centres not stated)
21,219 to 225,CON=Cc1sc(-c2ccc(O)cc2)c(C)c1-c1ccc(O)cc1
22,197 to 198,C#CCCOc1cc(/C=C/C(=O)Nc2ccccc2C(=O)O)ccc1OC
23,197 to 202,CCC1Cn2c(ncc(C(N)=O)c2=O)-c2ccccc21 (configuration not stated)
24,92 to 93,COc1ccc(CC2CCc3ncc(C)cc3C2=O)cc1 (configuration not stated)
25,222 to 224,c1ccc(Nc2ccnc3cn[nH]c23)cc1
26,50 to 53,COC(=O)Cc1ccc(OCCNC(=O)C2Cc3ccccc3N2S(=O)(=O)c2ccc(-c3cc(C)ccc3Cl)cc2)cc1 (configuration not stated)
27,82 to 85,CCCOC(=O)C1Oc2ccccc2Cc2ccccc2O1

row,melting point [°C],Structure (SMILES)
1,152 to 153,Cc1cc(C)c(Nc2nc(C)ccc2S(=O)(=O)c2ccc(OCCCO)cc2)c(C)c1
2,170,COc1ccc(-c2cn(-c3cccc(OCCCl)c3)c3ncnc(N)c23)cc1OCc1ccccc1
3,308 to 310,O=C(O)COc1ccc(Nc2nccc(-c3ccncc3)n2)cc1
4,114 to 116,COCCc1nc2c(N)nc3ccccc3c2n1CCCCNC(=O)c1cnc2ccccc2c1
5,203,Cc1cccc(C)c1CNc1cc(C(=O)N(C)C)nc2c(C)c(C)n(Cc3ccccc3)c12
6,91 to 92,CC(C)(C)OC(=O)NCCc1ccc(OCCC2Oc3ccccc3N(Cc3cccc(Cl)c3)C2=O)cc1 (configuration not stated)
7,243 to 244,Cn1nc(O)c2ccccc2c1=O
8,123 to 124,C#CCc1c(C)nc2c(OCc3ccccc3C)nccn12
9,142 to 145,CC(c1ccc(C(=O)N(C)C2CCCCC2)cc1)n1cnc2ccccc21 (configuration not stated)
10,145 to 148,CC1CCCN(c2cc(F)cc(C(=O)Nc3ccc(OCCN4CCOCC4)c4ccccc34)c2)C1 (configuration not stated)
11,130 to 131,Cc1cc2c(c(C)c1NC(=O)CC(C)(C)C)C(c1ccc(C(C)C)cc1)CO2 (configuration not stated)
12,193 to 195,CC(C)C(CS(=O)(=O)c1ccc(-c2cccc(CNC(=O)c3nc4ccccc4c(=O)[nH]3)c2)cc1)N(O)C(N)=O (configuration not stated)
13,> 275,COC(=O)Nc1nc(-c2ccccc2)c(-c2nc3ccccc3c(=O)n2-c2ccccc2)s1
14,186 to 189,Cc1nn(-c2ccc(Cl)cc2)cc1C(=O)N(CC(=O)O)c1ccc(OCC(C)(C)C)c(C#N)c1
15,60,CC(NCCO)c1ccccc1 (configuration not stated)
16,95 to 96,COCCNC(=O)c1cc2cc(OCCNC[C@H](O)COc3ccccc3)ccc2o1
17,103 to 104,COc1ccc(C(C#Cc2ccccc2)Cc2ncc(C)o2)cc1OC1CCCC1 (racemic)
18,101 to 108,CC(C)c1ccc2c(c1)OCc1ccc(C#N)cc1C2=O
19,213 to 214,CN1CCN(c2cccc3ccc(NC(=O)Nc4ccccc4)cc23)CC1
20,234 to 236,CC(c1oc2ccccc2c(=O)c1-c1cccc(F)c1)n1nc(-c2ccco2)c2c(N)ncnc21 (configuration not stated)
21,164 to 165,Cc1cc(Nc2ccnc(Nc3ccc(S(=O)(=O)N(C)C4CCC(F)(F)CC4)cc3)n2)ccc1F
22,114 to 115,O=C(O)CCc1ccc(OCc2ccc(CN(CCc3ccccc3)c3nc(-c4ccccc4)cs3)cc2)cc1
23,274,COc1ccc(N=Nc2ccc(O)c(C(=O)Nc3ccc4[nH]cnc4c3)c2)cc1
24,163 to 165,Cc1cccc(C2=C(c3ccc(S(C)(=O)=O)cc3)CN(C)C2=O)c1
25,118 to 120,CCN(CC)CCn1c2c(c3ccccc31)CCS(=O)(=O)CCC2
26,> 250,COC(=O)C(NC(=O)c1ccccc1)c1ccc(-c2ccc(S(=O)(=O)O)cc2)cc1 (configuration not stated)
27,159 to 161,CC(=O)C1CCc2c([nH]c3ccc(Cl)cc23)C1 (configuration not stated)

# — a melting point compilation (Tetko et al.; mined from patent text by program, amines drawn as free bases though some values may be those of a salt)
